US4192799A, “Conjugates formed by reacting a prostaglandin mimic compound with a carrier molecule” (The Upjohn Company, priority 1977, dated 1980)
Where two headings read alike, the source gives them in different places.

Key:
[1] = tested on: antiserum raised against 9-deoxy-9-methylene PGF2 (KLH Conjugate); assay: RIA cross-reactivity of antiserum raised against 9-deoxy-9-methylene PGF2, KLH conjugate; type: binding, Albino New Zealand rabbits; details: relative to PGE2; ng required to displace 50% of [3H]PGE2
Protocol: (§1) Five milligrams of KLH-PGE2 mimic conjugate is added to 2.25 ml. of sterile saline (0.9%) and 2.25 ml. of Freund's complete adjuvant and blended. 1.0 ml. of this mixture is injected subcutaneously at 20-30 sites on the flanks of four Albino New Zealand rabbits of 2-4 kg. mass. Each rabbit receives a dose of about 1 mg. On the same day, 1.0 ml. of attenuated pertussis vaccine is injected intramuscularly at four sites on the hindquarters of each rabbit.
(§2) A known amount of PGE-type compound in 0.1 ml. PBSG buffer at pH 7.4±0.2 and 0.1 ml. of the radiolabeled form of the same PGE-type compound (10,000 cpm/0.1 ml. PBSG) are introduced into a 12×75 mm. polypropylene tube. Antiserum (0.1 ml.) against the corresponding mimic is added at a dilution which will bind 50%±3% of the radiolabeled authentic PGE-type compound in the absence of competition from the unlabeled PGE-type compound. The tube is incubated for 1 hour at 25° and then 12-16 hours at 4°. Antibody bound and free fractions are separated with dextrancoated charcoal. Other separation techniques are acceptable.
(§3) The data below show the cross-reactivity of antiserum raised against 9-deoxy-9-methylene PGF2 to various PGE-type compounds, relative to PGE2. Percent cross-reaction is defined as (ng. of PGE2 required to displace 50% of [^3 H] PGE2)/(ng. heterologous PG required to displace 50% of [^3 H] PGE2)×100.

[2] = tested on: antiserum raised against 9-deoxy-9-methylene PGF2 (BSA Conjugate); assay: RIA cross-reactivity of antiserum raised against 9-deoxy-9-methylene PGF2, BSA conjugate; type: binding, Albino New Zealand rabbits; details: relative to PGE2; ng required to displace 50% of [3H]PGE2
Protocol: as §1
Antibodies against other PG mimics can be elicited by substituting equal amounts of other conjugates, such as those of preparations 1 through 9, for the KLH-PGE2 mimic conjugate in procedure 1. For example, the following conjugates can be substituted:
as §2, §3

[3] = tested on: antibodies against PGE1 -BSA conjugate (Example 4); details: Table 1 Example 4, conjugate PGE1 -BSA, PGE1 = 100; cited from earlier work
[4] = tested on: antibodies against PGE1 -BSA conjugate (Example 7); details: Table 1 Example 7, conjugate PGE1 -BSA, PGE1 = 100; cited from earlier work
[5] = tested on: antibodies against PGE1 -BSA conjugate (Example 6); details: Table 1 Example 6, conjugate PGE1 -BSA, PGE1 = 100; cited from earlier work
[6] = tested on: antibodies against PGE1 -poly-1-lysine conjugate; details: Table 1 Example 2, conjugate PGE1 -poly-1-lysine, PGE1 = 100; cited from earlier work
[7] = tested on: antibodies against PGE2 -BSA conjugate (Example 1); details: Table II Example 1, conjugate PGE2 -BSA, PGE2 = 100; cited from earlier work
[8] = tested on: antibodies against PGE2 -BSA conjugate (Example 3); details: Table II Example 3, conjugate PGE2 -BSA, PGE2 = 100; cited from earlier work
[9] = tested on: antibodies against PGE1 -BSA conjugate (Example 5); details: Table 1 Example 5, conjugate PGE1 -BSA, PGE1 = 100; cited from earlier work
[10] = tested on: antibodies against PGE2 -hen gamma globulin conjugate; details: Table II Example 4, conjugate PGE2 -hen gamma globulin, PGE2 = 100; cited from earlier work
[11] = tested on: antibodies against PGE2 -BSA conjugate (Example 5); details: Table II Example 5, conjugate PGE2 -BSA, PGE2 = 100, cited from earlier work
[12] = tested on: antibodies against PGE1 -porcine gamma globulin conjugate; details: Table 1 Example 3, conjugate PGE1 -porcine gamma globulin, PGE1 = 100; cited from earlier work
[13] = tested on: antibodies against PGE1 -thyroglobulin conjugate; details: Table 1 Example 1, conjugate PGE1 -thyroglobulin, PGE1 = 100; cited from earlier work
[14] = tested on: antibodies against PGE2 -KLH conjugate; details: Table II Example 2, conjugate PGE2 -KLH, PGE2 = 100; cited from earlier work
[15] = aqueous solution at room temperature; cited from earlier work

For `CCCCC[C@H](O)/C=C/[C@@H]1[C@@H](CC(=O)CCCCC(=O)O)[C@@H](O)C[C@H]1O` [6-keto-PGF1 α], the “% Cross-Reaction KLH Conjugate” value [1] was 0.10% and the “% Cross-Reaction BSA Conjugate” value [2] was 0.50%.
In the case of `C=C1C[C@@H](O)[C@H](/C=C/[C@@H](O)CCCCC)[C@H]1C/C=C\CCCC(=O)O` [9-deoxy-9-methylene PGF2, 9-deoxy-9-methylene-PGF2], the “% Cross-Reaction KLH Conjugate” value [1] is reported as 100% and the “% Cross-Reaction BSA Conjugate” value [2] is reported as 100%.
In the case of `CCCCCC(=O)CC[C@H]1[C@H](O)CC(=O)[C@@H]1C/C=C\CCCC(=O)O` [13,14-dihydro-15-keto-PGE2, 13,14-dihydro-15-keto-PGE], the “% Cross-Reaction KLH Conjugate” value [1] is reported as 0.03% and the “% Cross-Reaction BSA Conjugate” value [2] is reported as 0.2%.
With `CCCCCC(=O)CC[C@@H]1[C@@H](C/C=C\CCCC(=O)O)[C@@H](O)C[C@H]1O` [13,14-dihydro-15-keto-PGF2 α] the “% Cross-Reaction KLH Conjugate” value [1] was 0.10% and the “% Cross-Reaction BSA Conjugate” value [2] was 0.01%.
In the case of `CCCCC[C@H](O)CC[C@H]1[C@H](O)CC(=O)[C@@H]1C/C=C\CCCC(=O)O` [13,14-dihydro-PGE2], the “% Cross-Reaction KLH Conjugate” value [1] is reported as 1.6% and the “% Cross-Reaction BSA Conjugate” value [2] is reported as 3.6%.
In the case of `CCCCC[C@H](O)CC[C@@H]1[C@@H](C/C=C\CCCC(=O)O)[C@@H](O)C[C@H]1O` [13,14-dihydro-PGF2 α], the “% Cross-Reaction KLH Conjugate” value [1] is reported as 0.34% and the “% Cross-Reaction BSA Conjugate” value [2] is reported as 0.2%.
With `CCCCCC(=O)/C=C/[C@H]1[C@H](O)CC(=O)[C@@H]1C/C=C\CCCC(=O)O` [15-keto-PGE2] the “% Cross-Reaction KLH Conjugate” value [1] was 0.03% and the “% Cross-Reaction BSA Conjugate” value [2] was 2.5%.
For `CCCCCC(=O)/C=C/[C@@H]1[C@@H](C/C=C\CCCC(=O)O)[C@@H](O)C[C@H]1O` [15-keto-PGF2 α], the “% Cross-Reaction KLH Conjugate” value [1] was 0.01% and the “% Cross-Reaction BSA Conjugate” value [2] was 0.2%.
For `CCCCC[C@H](O)/C=C/[C@H]1C=CC(=O)[C@@H]1CCCCCCC(=O)O` [PGA1], the “% Cross Reaction” value [3] is listed as 100%, the “% Cross Reaction” value [4] is listed as 6% and the “% Cross Reaction” value [5] is listed as 10,000%. The “% Cross Reaction” value [6] was 220%, the “% Cross Reaction” value [7] was 7% and the “% Cross Reaction” value [8] was 200%. The “% Cross-Reaction KLH Conjugate” value [1] was 0.08%, the “% Cross-Reaction BSA Conjugate” value [2] was 4.9% and the “% Cross Reaction” value [9] was 25%.
In the case of `CCCCC[C@H](O)/C=C/[C@H]1C=CC(=O)[C@@H]1C/C=C\CCCC(=O)O` [PGA2], the “% Cross Reaction” value [3] is given as 100%, the “% Cross Reaction” value [5] is given as 1000% and the “% Cross Reaction” value [6] is given as 440%. The “% Cross Reaction” value [7] was 7%, the “% Cross Reaction” value [10] was 3% and the “% Cross Reaction” value [8] was 400%. The “% Cross-Reaction KLH Conjugate” value [1] was 0.75%, the “% Cross-Reaction BSA Conjugate” value [2] was 2.8% and the “% Cross Reaction” value [11] was 550%. For the same molecule, the “% Cross Reaction” value ([11]; listed as A2) was “recognized preferentially” and the “% Cross Reaction” value [9] was 10%.
For `CCCCC[C@H](O)/C=C/C1=C(CCCCCCC(=O)O)C(=O)CC1` [PGB1], the “% Cross Reaction” value [4] is listed as 66%, the “% Cross Reaction” value [5] is listed as 100,000% and the “% Cross Reaction” value [6] is listed as 31,000%. The “% Cross Reaction” value [12] was 10%, the “% Cross-Reaction KLH Conjugate” value [1] was 0.005% and the “% Cross-Reaction BSA Conjugate” value [2] was 0.1%.
In the case of `CCCCC[C@H](O)/C=C/C1=C(C/C=C\CCCC(=O)O)C(=O)CC1` [PGB2], the “% Cross Reaction” value [3] is listed as 100%, the “% Cross Reaction” value [5] is listed as 50,000% and the “% Cross Reaction” value [6] is listed as 8,500%. For the same molecule, the “% Cross Reaction” value [7] was 7%, the “% Cross-Reaction KLH Conjugate” value [1] was 0.009% and the “% Cross-Reaction BSA Conjugate” value [2] was 0.0%. The “% Cross Reaction” value [11] was 580% and the “% Cross Reaction” value ([11]; listed as B2) was “recognized preferentially”.
With `CCCCC[C@H](O)/C=C/[C@H]1C(=O)C[C@H](O)[C@@H]1CCCCCCC(=O)O` [PGD1] the “% Cross-Reaction KLH Conjugate” value [1] was 0.02% and the “% Cross-Reaction BSA Conjugate” value [2] was 4.9%.
For `CCCCC[C@H](O)/C=C/[C@H]1C(=O)C[C@H](O)[C@@H]1C/C=C\CCCC(=O)O` [PGD2], the “% Cross-Reaction KLH Conjugate” value [1] was 0.02% and the “% Cross-Reaction BSA Conjugate” value [2] was 10.0%.
In the case of `CCCCC[C@H](O)/C=C/[C@H]1[C@H](O)CC(=O)[C@@H]1CCCCCCC(=O)O` [PGE1], the “% Cross Reaction” value [3] is listed as 100%, the “% Cross Reaction” value [4] is listed as 100% and the “% Cross Reaction” value [5] is listed as 100%. For the same molecule, the “% Cross Reaction” value [13] was 100%, the “% Cross Reaction” value [6] was 100% and the “% Cross Reaction” value [7] was 10%. For the same molecule, the “% Cross Reaction” value [10] was 15%, the “% Cross Reaction” value [8] was 73% and the “% Cross Reaction” value [12] was 100%. For the same molecule, the “% Cross-Reaction KLH Conjugate” value [1] was 90%, the “% Cross-Reaction BSA Conjugate” value [2] was 100% and the “% Cross Reaction” value [11] was 55%. For the same molecule, the “% Cross Reaction” value [14] was 110% and the “% Cross Reaction” value [9] was 100%.
For `CCCCC[C@H](O)/C=C/[C@H]1[C@H](O)CC(=O)[C@@H]1C/C=C\CCCC(=O)O` [PGE2, prostaglandin E2], the “% Cross Reaction” value [3] is given as 100%, the “% Cross Reaction” value [5] is given as 90% and the “% Cross Reaction” value [13] is given as 20%. For the same molecule, the “% Cross Reaction” value [6] was 10%, the “% Cross Reaction” value [7] was 100% and the “% Cross Reaction” value [10] was 100%. The “% Cross Reaction” value [8] was 100%, the “% Cross Reaction” value [11] was 100% and the “% Cross Reaction” value [14] was 100%.
In the case of `CCCCC[C@H](O)/C=C/[C@@H]1[C@@H](CCCCCCC(=O)O)[C@H](O)C[C@H]1O` [PGF1 β], the “% Cross-Reaction KLH Conjugate” value [1] is reported as 0.30% and the “% Cross-Reaction BSA Conjugate” value [2] is reported as 5.0%.
For `CCCCC[C@H](O)/C=C/[C@@H]1[C@@H](C/C=C\CCCC(=O)O)[C@@H](O)C[C@H]1O` [PGF2 α], the “% Cross-Reaction KLH Conjugate” value [1] was 0.20% and the “% Cross-Reaction BSA Conjugate” value [2] was 1.5%.
For `CCCCC[C@H](O)/C=C/[C@@H]1[C@@H](C/C=C\CCCC(=O)O)[C@H](O)C[C@H]1O` [PGF2 β], the “% Cross-Reaction KLH Conjugate” value [1] was 3.0% and the “% Cross-Reaction BSA Conjugate” value [2] was 4.4%.
For `CCCCC[C@H](O)/C=C/[C@@H]1[C@@H](C/C=C\CCCC(=O)O)[C@@H]2C[C@H]1OO2` [PGH2], the half-life [15] is listed as “approximately five”.
For PGB3, the “% Cross Reaction” value [7] is given as 7% and the “% Cross Reaction” value [8] is given as 62%.
In the case of PGE1 α, the “% Cross-Reaction KLH Conjugate” value [1] is reported as 0.09% and the “% Cross-Reaction BSA Conjugate” value [2] is reported as 2.9%.
